Experimental data from paper PMC5242521 (PLoS ONE, 2017).
Like-named read-outs stand apart in the source and are kept apart here.

Experiments:
[1] = molecular target: T1, OAT3 (Homo sapiens, UniProt Q8TCC7); test: OAT3 activity: fluorescein accumulation in HEK-OAT3 cells; details: for inhibition at 100 μM: human, pH 7.4; for effect on OAT3 activity: pyrethroid 100 μM
T1 sequence (Q8TCC7 1-542): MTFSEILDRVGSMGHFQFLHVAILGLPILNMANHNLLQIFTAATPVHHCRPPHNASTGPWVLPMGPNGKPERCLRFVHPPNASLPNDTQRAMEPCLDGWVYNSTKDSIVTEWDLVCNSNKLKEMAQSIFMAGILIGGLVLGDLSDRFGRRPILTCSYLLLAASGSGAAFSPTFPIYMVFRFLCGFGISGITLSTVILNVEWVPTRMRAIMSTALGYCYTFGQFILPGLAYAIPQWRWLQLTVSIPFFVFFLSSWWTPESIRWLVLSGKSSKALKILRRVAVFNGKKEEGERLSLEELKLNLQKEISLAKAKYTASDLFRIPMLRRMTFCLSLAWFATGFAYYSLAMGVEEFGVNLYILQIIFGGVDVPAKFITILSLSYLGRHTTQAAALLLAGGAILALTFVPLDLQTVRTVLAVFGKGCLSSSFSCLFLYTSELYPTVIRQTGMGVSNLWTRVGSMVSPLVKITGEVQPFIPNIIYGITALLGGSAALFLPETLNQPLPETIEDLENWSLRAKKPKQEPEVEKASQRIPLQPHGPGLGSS
Protocol: (§1) The effects of pyrethroids on activity of ABC and SLC transporters were determined through measuring cellular accumulation or retention of fluorescent or radiolabeled reference substrates for transporters, in the presence or absence of reference inhibitors, as previously described. The nature of cells and reference substrates and inhibitors used for transport assays are summarized in S3 Table.
For accumulation assays (performed for all transporters, excepted BCRP), transporter-expressing cells usually cultured in 48-well plates were first incubated at 37°C with reference substrates in the absence (control) or presence of pyrethroids or reference inhibitors, in a well-defined transport assay medium, consisting of 136 mM NaCl, 5.3 mM KCl, 1.1mM KH2PO4, 0.8 mM MgSO4, 1.8 mM CaCl2, 10 mM HEPES, 11 mM D-glucose and adjusted to pH = 7.4 (excepted for MATE transporter assays, for which pH was set to 8.4). The nature of substrates and reference inhibitors and the incubation times with substrates, that varied according to the transporter, were selected in agreement with previous studies and are indicated in S3 Table. The total incubation volume with substrates was 200 μL/well. After washing twice in phosphate-buffered saline (PBS) (200 μL/well/washing), cells were lysed in distilled water (155 μL/well). An aliquot of cell lysate (5 μL) was then taken for determining cellular protein content by the Bradford method. The rest of lysate (150 μL/well) was used for measuring intracellular accumulation of reference substrates by scintillation counting or spectrofluorimetry using a SpectraMax Gemini SX spectrofluorometer (Molecular Devices, Sunnyvale, CA, USA) (excitation and emission wavelengths were 485 and 535 nm, respectively, for rhodamine 123 and fluorescein, and 355 and 460 nm, respectively, for DAPI).
(§2) Intracellular concentrations of reference substrates were initially expressed as fluorescence arbitrary units (for fluorescent dye substrates) or as moles (for radiolabeled substrates) and normalized to cellular protein content, determined by the Bradford method. They were finally used for calculating percentage of transporter activity, according to the following equations [41, 45]: %ABCtransporter activity=([Substrateref inh]-[Substratepyrethroid])×100/([Substrateref inh]-[Substratecontrol]) (1) %SLC transporter activity=([Substratepyrethroid]-[Substratref inh])×100/([Substratecontrol]-[Substrateref inh]) (2) with [Substratepyrethroid] = cellular concentration of reference substrate in the presence of pyrethroid, [Substrateref inh] = cellular concentration of reference substrate in the presence of reference inhibitor and [Substratecontrol] = cellular concentration of reference substrate in control cells not exposed to pyrethroid or reference inhibitor.
(§3) The initial tested concentration of pyrethroids was 100 μM. […] Such concentrations were calculated using GraphPad Prism software (GraphPad Software, La Jolla, CA), through nonlinear regression based on the four parameter logistic function using the following equations: […]

[2] = molecular target: T2, MATE2-K (Homo sapiens, UniProt Q86VL8); test: MATE2-K activity: TEA accumulation in HEK-MATE2-K cells; type: cell-based
T2 construct: expressed in transfected cells; host or cells: HEK293
Protocol: The effects of pyrethroids on activity of ABC and SLC transporters were determined through measuring cellular accumulation or retention of fluorescent or radiolabeled reference substrates for transporters, in the presence or absence of reference inhibitors, as previously described [41].
For accumulation assays (performed for all transporters, excepted BCRP), transporter-expressing cells usually cultured in 48-well plates were first incubated at 37°C with reference substrates in the absence (control) or presence of pyrethroids or reference inhibitors, in a well-defined transport assay medium [42], consisting of 136 mM NaCl, 5.3 mM KCl, 1.1mM KH2PO4, 0.8 mM MgSO4, 1.8 mM CaCl2, 10 mM HEPES, 11 mM D-glucose and adjusted to pH = 7.4 (excepted for MATE transporter assays, for which pH was set to 8.4). The nature of substrates and reference inhibitors and the incubation times with substrates, that varied according to the transporter, were selected in agreement with previous studies [41, 43] and are indicated in S3 Table. The total incubation volume with substrates was 200 μL/well. After washing twice in phosphate-buffered saline (PBS) (200 μL/well/washing), cells were lysed in distilled water (155 μL/well). An aliquot of cell lysate (5 μL) was then taken for determining cellular protein content by the Bradford method [44]. The rest of lysate (150 μL/well) was used for measuring intracellular accumulation of reference substrates by scintillation counting or spectrofluorimetry using a SpectraMax Gemini SX spectrofluorometer (Molecular Devices, Sunnyvale, CA, USA) (excitation and emission wavelengths were 485 and 535 nm, respectively, for rhodamine 123 and fluorescein, and 355 and 460 nm, respectively, for DAPI).
Intracellular concentrations of reference substrates were initially expressed as fluorescence arbitrary units (for fluorescent dye substrates) or as moles (for radiolabeled substrates) and normalized to cellular protein content, determined by the Bradford method [44]. […]

[3] = molecular target: T3, MRP2 (Homo sapiens, UniProt Q92887); test: MRP2 activity: CF accumulation in HuH-7 cells; type: cell-based; details: for inhibition at 100 μM: human, pH 7.4
T3 construct: multidrug resistance-associated protein (MRP) 2/ABCC2-expressing human hepatoma HuH-7 cells; endogenous in cells; host or cells: HuH-7 human hepatoma cells
Protocol: The initial tested concentration of pyrethroids was 100 μM.

[4] = molecular target: T4, OATP2B1 (Homo sapiens, UniProt O94956); test: OATP2B1 activity: E3S accumulation in HEK-OATP2B1 cells; details: for effect on OATP2B1 activity: pyrethroid 100 μM
T4 sequence (O94956 1-709): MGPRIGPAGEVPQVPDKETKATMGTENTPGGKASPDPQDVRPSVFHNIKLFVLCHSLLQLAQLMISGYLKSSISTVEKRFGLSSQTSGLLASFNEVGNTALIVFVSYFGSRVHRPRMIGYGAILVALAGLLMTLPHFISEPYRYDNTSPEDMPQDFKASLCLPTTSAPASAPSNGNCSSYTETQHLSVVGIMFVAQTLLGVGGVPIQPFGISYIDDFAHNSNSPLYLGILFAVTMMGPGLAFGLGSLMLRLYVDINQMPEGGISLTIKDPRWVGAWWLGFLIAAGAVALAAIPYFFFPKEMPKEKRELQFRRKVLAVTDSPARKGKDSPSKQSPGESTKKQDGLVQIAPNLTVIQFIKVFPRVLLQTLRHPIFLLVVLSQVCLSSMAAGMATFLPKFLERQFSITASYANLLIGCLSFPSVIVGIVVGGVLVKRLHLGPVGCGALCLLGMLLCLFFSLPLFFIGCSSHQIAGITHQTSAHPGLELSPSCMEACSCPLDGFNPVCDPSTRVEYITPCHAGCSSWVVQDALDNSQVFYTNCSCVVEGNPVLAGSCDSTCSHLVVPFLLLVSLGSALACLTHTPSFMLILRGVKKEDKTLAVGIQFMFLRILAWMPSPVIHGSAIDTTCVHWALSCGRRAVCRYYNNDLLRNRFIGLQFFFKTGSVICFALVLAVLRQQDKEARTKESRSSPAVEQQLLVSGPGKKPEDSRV
Protocol: as §1
The nature of substrates and reference inhibitors and the incubation times with substrates, that varied according to the transporter, were selected in agreement with previous studies and are indicated in S3 Table. The total incubation volume with substrates was 200 μL/well. […] An aliquot of cell lysate (5 μL) was then taken for determining cellular protein content by the Bradford method.
as §2, §3

T3 sequence (Q92887 whole entry): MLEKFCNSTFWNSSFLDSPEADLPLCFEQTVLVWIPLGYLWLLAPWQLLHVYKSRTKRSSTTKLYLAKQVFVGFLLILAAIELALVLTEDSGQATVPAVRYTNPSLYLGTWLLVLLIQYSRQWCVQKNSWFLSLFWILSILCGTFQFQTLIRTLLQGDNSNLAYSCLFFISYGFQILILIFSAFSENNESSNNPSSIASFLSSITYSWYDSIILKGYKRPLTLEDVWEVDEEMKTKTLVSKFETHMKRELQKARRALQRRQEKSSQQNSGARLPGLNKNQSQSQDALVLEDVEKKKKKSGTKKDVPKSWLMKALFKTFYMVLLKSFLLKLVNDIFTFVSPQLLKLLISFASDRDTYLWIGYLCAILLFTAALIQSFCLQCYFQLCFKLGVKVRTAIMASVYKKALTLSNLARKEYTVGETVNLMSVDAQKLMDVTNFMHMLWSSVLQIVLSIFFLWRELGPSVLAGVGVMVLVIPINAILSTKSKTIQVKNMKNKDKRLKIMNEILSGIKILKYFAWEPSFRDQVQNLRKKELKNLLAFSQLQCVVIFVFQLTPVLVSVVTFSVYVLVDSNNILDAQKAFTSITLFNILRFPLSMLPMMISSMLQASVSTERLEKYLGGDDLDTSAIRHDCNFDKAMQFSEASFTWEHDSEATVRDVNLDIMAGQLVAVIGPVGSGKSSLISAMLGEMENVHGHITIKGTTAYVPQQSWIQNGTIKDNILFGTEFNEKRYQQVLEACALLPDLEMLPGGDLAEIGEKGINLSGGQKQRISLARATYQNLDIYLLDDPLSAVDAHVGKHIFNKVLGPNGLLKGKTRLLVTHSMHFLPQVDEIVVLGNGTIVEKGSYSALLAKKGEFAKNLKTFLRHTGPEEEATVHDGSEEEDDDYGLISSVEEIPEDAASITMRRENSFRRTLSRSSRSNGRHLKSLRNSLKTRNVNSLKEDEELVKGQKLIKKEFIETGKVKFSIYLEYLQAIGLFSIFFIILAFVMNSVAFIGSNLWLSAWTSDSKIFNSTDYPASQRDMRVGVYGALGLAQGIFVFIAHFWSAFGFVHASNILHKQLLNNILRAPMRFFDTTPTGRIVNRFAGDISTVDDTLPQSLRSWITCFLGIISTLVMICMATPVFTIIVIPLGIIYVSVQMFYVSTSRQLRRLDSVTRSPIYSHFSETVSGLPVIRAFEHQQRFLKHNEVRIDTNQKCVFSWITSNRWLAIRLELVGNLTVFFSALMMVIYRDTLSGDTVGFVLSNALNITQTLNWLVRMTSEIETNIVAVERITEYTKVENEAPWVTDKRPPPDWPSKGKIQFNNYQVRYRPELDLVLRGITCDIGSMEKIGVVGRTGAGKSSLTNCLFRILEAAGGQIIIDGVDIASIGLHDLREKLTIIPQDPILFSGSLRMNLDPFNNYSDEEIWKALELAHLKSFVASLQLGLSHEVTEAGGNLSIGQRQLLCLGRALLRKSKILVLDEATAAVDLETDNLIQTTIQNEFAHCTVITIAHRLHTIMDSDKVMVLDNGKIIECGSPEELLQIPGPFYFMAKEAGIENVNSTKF
T2 sequence (Q86VL8 1-566 isoform Q86VL8-3): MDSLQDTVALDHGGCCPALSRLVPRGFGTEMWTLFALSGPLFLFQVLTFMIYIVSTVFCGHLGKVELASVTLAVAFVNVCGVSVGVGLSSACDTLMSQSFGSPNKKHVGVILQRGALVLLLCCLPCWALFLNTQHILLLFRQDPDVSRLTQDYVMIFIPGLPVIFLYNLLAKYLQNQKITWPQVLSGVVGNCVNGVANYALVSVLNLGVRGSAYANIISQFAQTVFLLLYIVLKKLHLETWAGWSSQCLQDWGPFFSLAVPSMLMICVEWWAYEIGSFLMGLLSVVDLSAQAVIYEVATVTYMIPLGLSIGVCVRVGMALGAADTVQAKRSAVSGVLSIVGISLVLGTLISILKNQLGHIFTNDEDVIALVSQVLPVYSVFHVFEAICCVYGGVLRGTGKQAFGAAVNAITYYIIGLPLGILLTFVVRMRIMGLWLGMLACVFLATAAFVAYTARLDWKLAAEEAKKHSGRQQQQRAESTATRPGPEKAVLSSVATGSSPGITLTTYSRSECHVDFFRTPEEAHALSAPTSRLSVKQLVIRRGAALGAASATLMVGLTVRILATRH

Compound	IC50 [1] [µM]	inhibition at 100 μM [1] [%]	effect on MATE2-K activity [2]	IC50 [3] [µM]	inhibition at 100 μM ([3]; pyrethroid 100 μM, HuH-7 cells, CF, read-out: inhibition of MRP2 activity) [%]	EC50 [4] [µM]	effect on OAT3 activity [1]	effect on OATP2B1 activity [4]	effect on MATE2-K activity ([2]; pyrethroid up to 100 μM, HEK-MATE2-K cells, TEA)	effect on MATE2-K activity ([2]; pyrethroid up to 100 μM, HEK-MATE2-K cells, TEA, listed as Allethrin)	inhibition at 100 μM [3] [%]
CC(C)=CC1C(C(=O)OCN2C(=O)C3=C(CCCC3)C2=O)C1(C)C (stereo not drawn) [tetramethrin]	77.6	69.3	No effect (up to 100 μM)	65.5	58.3	10.1	–	–	–	–	–
C#CCC1=C(C)C(OC(=O)C2C(C=C(C)C)C2(C)C)CC1=O (stereo not drawn) [prallethrin]	–	–	–	–	–	–	inhibited	cis-stimulated	–	–	–
C#CCN1CC(=O)N(COC(=O)[C@@H]2C(C=C(C)C)C2(C)C)C1=O (mixture of isomers) [imiprothrin]	–	–	–	–	–	–	inhibited	cis-stimulated	–	–	–
C=CCC1=C(C)C(OC(=O)C2C(C=C(C)C)C2(C)C)CC1=O (stereo not drawn) [allethrin]	69.4	74.8	–	48.2	–	37.8	–	cis-stimulated	failed to alter	No effect (up to 100 μM)	83.8
